The record followed here is publication PMC9145754, “Novel Soloxolone Amides as Potent Anti-Glioblastoma Candidates: Design, Synthesis, In Silico Analysis and Biological Activities In Vitro and In Vivo” (Pharmaceuticals, 2022).

The subject of series [1] is hFF3 foreskin fibroblasts. Put plainly: MTT cytotoxicity assay, hFF3 fibroblasts. It counts as cell-based, human. The following applies: Homo sapiens, HFF-3, 24 h. Here is the method:
In the first step of the study, we analyzed the cytotoxicity of novel soloxolone derivatives 1–12 in a panel of tumor cells, including human cervical carcinoma HeLa, human duodenal carcinoma HuTu-80 and murine melanoma B16 cells, as well as human non-transformed hFF3 foreskin fibroblasts. The cells were treated with derivatives for 24 h and cell viability was evaluated by 3-(4,5-dimethylthiazol-2-yl)-2,5-diphenyltetrazolium bromide (MTT) assay. SM was used as the reference compound.
(§1) The cells in the exponential growth phase were seeded in quadruplicate in 96-well plates at a density of 1 × 10^4 cells/well for HeLa, U87, U118, KELLY and Neuro2a cells; 1.5 × 10^4 cells/well for HuTu-80 cells; 2 × 10^4 cells/well for B16 cells; and 7 × 10^3 cells/well for hFF3 fibroblasts. Cells were incubated under standard conditions overnight followed by their treatment with the investigated compounds (1–20 µM) for 24 h. Then, 10 µL of MTT solution was added to the cells to a final concentration of 0.5 mg/mL and plates were placed under standard conditions for 3 h followed by an aspiration of MTT-containing medium and a dissolution of formazan crystals with 100 µL of DMSO. The absorbance of each well was read at test and reference wavelengths of 570 and 620 nm, respectively, on a Multiscan RC plate reader (Thermo LabSystems, Helsinki, Finland).

Another series has as its system U118 cells. Put plainly: MTT cytotoxicity assay, U118. The following applies: Homo sapiens, 24 h, read-out: IC50, Glioblastoma, U118. It counts as cell-based. The method, then: (§2) To evaluate the antitumor activity of the synthesized soloxolone amides in brain tumor cells, the cytotoxicity of compounds 4–12, predicted as BBB-permeable (Figure 3), was further analyzed in human glioblastoma U87 and U118 cells, as well as human neuroblastoma KELLY and murine neuroblastoma Neuro2a cells.
as §1
For orientation: Formazan colour is commonly taken as a measure of viable cells.

The subject of the next series is KELLY cells. The experiment in a line: MTT cytotoxicity assay, KELLY. As to conditions: Homo sapiens, 24 h, read-out: IC50, Neuroblastoma, KELLY. It counts as cell-based. Here is the method:
as §2, §1

A further series relates to Neuro2a cells. Put plainly: MTT cytotoxicity assay, Neuro2a. The class given is cell-based, murine. The following applies: Mus musculus, N2a, 24 h, read-out: IC50, Neuroblastoma, Neuro2a. The method, then:
as §2, §1

The test system of another series is U87 glioblastoma cells. Put plainly: Annexin V-APC/PI apoptosis assay, U87. It counts as cell-based, human. The following applies: for U87 Q4-2 (right upper quadrant, late apoptotic cells): 24 h, control 5.9%. The method, then: To evaluate which form of cell death was induced by compound 12 in glioblastoma cells, its ability to stimulate apoptosis, necrosis or autophagy was examined.
To quantify the percentage of cells undergoing apoptosis, glioblastoma U87 and U118 cells were seeded in 6-well plates at 2.8 × 10^5 cells/well in complete growth medium and incubated at standard conditions overnight followed by treatment with 12 at 4 µM for 24 h. Thereafter, the cells were harvested by trypsinization (TrypLE Express (Gibco, USA)) and centrifugation at 400 g for 5 min, washed with PBS and stained with 5 µL of Annexin V-APC (Sony Biotechnology Inc., San Jose, CA, USA) and 10 µL of propidium iodide (PI) (Invitrogen, Waltham, MA, USA) for 15 min at room temperature in the dark. After the incubation time, the cells were analyzed using a NovoCyte Flow Cytometer (ACEA Biosciences Inc., San Diego, CA, USA). For each sample, 10,000 events were acquired.

Another series relates to caspase-3 and -7. The experiment in a line: Caspase-3/-7 activation (CellEvent reagent, flow cytometry). It counts as cell-based, human. As to conditions: U87 cells. Here is the method:
To double check the pro-apoptotic activity of 12, its effect on the activation of executioner caspase-3 and -7, key markers of apoptosis, was evaluated in glioblastoma U87 cells.
U87 cells were plated at a density of 2.8 × 10^5 cells/well in 6-well plates and treated with 12 at 2 and 4 μM for 6 and 24 h. Then, the cells were collected by trypsinization and centrifugation, washed with PBS and stained with CellEvent™ Caspase-3/7 Green ReadyProbes™ Reagent (Molecular Probes, Eugene, OR, USA) according to the manufacturer’s manual. Briefly, harvested cells were resuspended in 200 μL of PBS containing the reagent (1 drop/mL) and incubated for 30 min at room temperature. After that, flow cytometry analysis of the cells was performed using the NovoCyte Flow Cytometer. In total, 10,000 events were acquired for each sample.
Background: In flow cytometry, cells or beads pass a laser one at a time.

Series [2] has as its system U87 cells. Put plainly: ROS production, DCFDA. It counts as cell-based, human. The following applies: U87, 12 at 4 µM, 24 h. Here is the method:
(§3) To check the ability of 12 to influence ROS production, U87 cells treated with 12 (4 µM) for 24 h were stained with dichlorodihydrofluorescein diacetate (DCFDA) and analyzed by flow cytometry. […] Since ROS play an important role in the regulation of cell death, we further examined whether ROS production mediated the cytotoxicity of 12 with respect to glioblastoma cells.
Intracellular ROS levels in glioblastoma cells were measured using a DCFDA/H2DCFDA-Cellular ROS Assay Kit (Abcam, Cambridge, UK) according to the manufacturer’s instructions. Briefly, U87 cells were collected by trypsinization and stained with DCFDA at 20 μM for 30 min under standard conditions and seeded in 6-well plates at 2.8 × 10^5 cells/well. Next, the cells were treated with 12 at 4 µM for 24 h, followed by their harvesting and flow cytometry analysis. In total, 10,000 events were recorded for each sample.

The subject of series [3] is U87 cells. The experiment in a line: Cytotoxicity of 12 with N-acetyl-L-cysteine (MTT). It counts as cell-based. The following applies: U87, 12 at 4 µM with NAC, 24 h. Here is the method: as §3
In order to understand whether ROS play a crucial role in compound 12-induced cell death, U87 cells were plated in quadruplicate in 96-well plates at a density of 1 × 10^4 cells/well and incubated in the presence of 12 at 4 µM and N-Acetyl-L-cysteine (NAC) at […] for 24 h under standard conditions. Then, cell viability was measured using an MTT test.

The subject of another series is glioblastoma cells. Put plainly: Cell survival at non-toxic concentrations. It counts as cell-based. As to conditions: 12 at 25–500 nM (non-toxic concentrations). The method, then: To evaluate the antitumor potential of 12 more comprehensively, its effects at non-toxic concentrations (25–500 nM; cell survival of ≥90%) on a range of metastatic-related processes in glioblastoma cells were studied. Firstly, we investigated the inhibitory activity of 12 on the clonogenic capacity of tumor cells in vitro, which reflects their ability to form colonies from single cells which characterizes the stemness of tumor cells and plays a crucial role in metastasis.

Take `CC1(C)C(=O)C(C#N)=C[C@]2(C)C3=CC(=O)[C@@H]4[C@@H]5C[C@@](C)(C(=O)NCCc6c[nH]c7ccccc67)CC[C@]5(C)CC[C@@]4(C)[C@]3(C)CC[C@@H]12` [compound 12]: the IC50 (usually the midpoint of a concentration-inhibition curve) in series [1] stood at 1.4 ± 0.2 µM; in the series on U118 cells it was 1.9 ± 0.2 µM; with KELLY cells it was 1.8 ± 0.1 µM; with Neuro2a cells it was 1.6 ± 0.1 µM. The figures for the “U87 Q4-2 (right upper quadrant, late apoptotic cells)” value in the series with U87 glioblastoma cells (12 at 2 µM) and with U87 glioblastoma cells (12 at 4 µM) were 28% and 73.4%, respectively. In addition, in the series on U87 glioblastoma cells (U87, 12 for 24 h), the “necrotic cell death (left upper quadrant)” value was “did not cause necrotic cell death”. Moreover, the “activation of caspase-3 and -7” value with caspase-3 and -7 was “effectively activated caspase-3 and -7 in a time-dependent manner”. Further, the “increase of ROS generation compared to the control” value in the series on U87 cells [2] is 1.9 fold. Also, in the series with U87 cells [3], the “effect of NAC on cytotoxic effect of 12” value is recorded as “complete abrogation of the cytotoxic effect”. In the series with glioblastoma cells, this compound returned a cell survival of no less than 90%.
